Molecular target: T1, human kinase Mps-1 (Homo sapiens, UniProt P33981)
T1 construct: N-terminally GST-tagged human full length recombinant Mps-1 kinase; GST (N); purchased Invitrogen, Karslruhe, Germany PV4071
T1 sequence (P33981 1-857): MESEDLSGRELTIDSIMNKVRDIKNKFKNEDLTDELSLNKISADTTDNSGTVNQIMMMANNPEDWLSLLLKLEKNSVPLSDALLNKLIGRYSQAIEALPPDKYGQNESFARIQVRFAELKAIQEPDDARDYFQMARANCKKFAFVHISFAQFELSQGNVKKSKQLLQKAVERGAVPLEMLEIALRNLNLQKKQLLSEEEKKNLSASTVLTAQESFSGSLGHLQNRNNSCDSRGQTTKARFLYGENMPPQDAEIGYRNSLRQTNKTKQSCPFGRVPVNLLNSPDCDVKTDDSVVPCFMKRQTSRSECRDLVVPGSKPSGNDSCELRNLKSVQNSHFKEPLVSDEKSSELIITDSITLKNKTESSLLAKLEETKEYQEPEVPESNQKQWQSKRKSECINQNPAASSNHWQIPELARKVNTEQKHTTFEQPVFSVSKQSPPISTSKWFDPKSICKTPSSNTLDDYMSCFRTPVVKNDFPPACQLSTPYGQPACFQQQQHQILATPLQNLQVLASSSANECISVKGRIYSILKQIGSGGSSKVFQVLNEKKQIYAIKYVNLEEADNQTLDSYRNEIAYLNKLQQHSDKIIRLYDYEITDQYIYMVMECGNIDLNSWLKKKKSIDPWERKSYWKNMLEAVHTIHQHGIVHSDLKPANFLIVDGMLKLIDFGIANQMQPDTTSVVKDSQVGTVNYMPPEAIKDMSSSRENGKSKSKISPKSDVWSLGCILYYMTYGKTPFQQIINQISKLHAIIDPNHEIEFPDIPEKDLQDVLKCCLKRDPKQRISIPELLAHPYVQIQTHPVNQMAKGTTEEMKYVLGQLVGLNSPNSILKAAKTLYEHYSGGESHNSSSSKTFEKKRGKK
Experiment: Mps-1 kinase assay (TR-FRET)
Format: biochemical
Conditions: GST-tagged human full length recombinant Mps-1; 10 μM ATP; 1 μM peptide substrate; 60 min at 22° C.
Procedure, shortened: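 N-terminally GST-tagged full-length recombinant human Mps-1, about 1 nM final, phosphorylates a biotinylated peptide. Product detected by TR-FRET from Eu-anti-phospho-Ser/Thr antibody to streptavidin-XLent after 1 h at 22° C.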

Compound	IC50
O=C(NC1CC1)c1ccc(-c2cnc3c(NCc4cccs4)nc(-c4ccncc4)cn23)cc1 [Example 3-1, N-cyclopropyl-4-{6-(pyridin-4-yl)-8-[(thiophen-2-ylmethyl)amino]imidazo[1,2-a]pyrazin-3-yl}benzamide]	4.1 nM
C#CCNc1nc(-c2ccccc2)cn2c(-c3ccc(C(=O)NC4CC4)cc3)cnc12 [Example 3-2, N-cyclopropyl-4-[6-phenyl-8-(prop-2-yn-1-ylamino)imidazo[1,2-a]pyrazin-3-yl]benzamide]	7.4 nM
CCCNc1nc(-c2ccncc2)cn2c(-c3ccc(C(=O)NC4CC4)cc3)cnc12 [Example 3-3, N-cyclopropyl-4-[8-(propylamino)-6-(pyridin-4-yl)imidazo[1,2-a]pyrazin-3-yl]benzamide]	2.1 nM
O=C(NC1CC1)c1ccc(-c2cnc3c(NCCO)nc(-c4ccncc4)cn23)cc1 [Example 3-4, N-cyclopropyl-4-{8-[(2-hydroxyethyl)amino]-6-(pyridin-4-yl)imidazo [1,2-a]pyrazin-3-yl} benzamide]	11.3 nM
O=C(NC1CC1)c1ccc(-c2cnc3c(NCCCN4CCOCC4)nc(-c4ccncc4)cn23)cc1 [Example 3-5, N-cyclopropyl-4-[8-{[3-(morpholin-4-yl)propyl]amino}-6-(pyridin-4-yl)imidazo[1,2-a]pyrazin-3-yl]benzamide]	214 nM
CC(C)CCNc1nc(-c2ccncc2)cn2c(-c3ccc(C(=O)NC4CC4)cc3)cnc12 [Example 3-6, N-cyclopropyl-4-{8-[(3-methylbutyl)amino]-6-(pyridin-4-yl)imidazo [1,2-a]pyrazin-3-yl} benzamide]	2.4 nM
O=C(NC1CC1)c1ccc(-c2cnc3c(NCC4CCCO4)nc(-c4ccncc4)cn23)cc1 (stereo not drawn) [Example 3-7, N-cyclopropyl-4-{6-(pyridin-4-yl)-8-[(tetrahydrofuran-2-ylmethyl)amino]imidazo[1,2-a]pyrazin-3-yl}benzamide]	2.4 nM
O=C(NC1CC1)c1ccc(-c2cnc3c(NCCCN4CCCC4=O)nc(-c4ccncc4)cn23)cc1 [Example 3-8, N-cyclopropyl-4-[8-{[3-(2-oxopyrrolidin-1-yl)propyl]amino}-6-(pyridin-4-yl)imidazo[1,2-a]pyrazin-3-yl]benzamide]	17.6 nM
O=C(NC1CC1)c1ccc(-c2cnc3c(NCc4ccccc4F)nc(-c4ccncc4)cn23)cc1 [Example 3-9, N-cyclopropyl-4-{8-[(2-fluorobenzyl)amino]-6-(pyrdin-4-yl)imidazo [1,2-a]pyrazin-3-yl} benzamide]	1 nM
O=C(NC1CC1)c1ccc(-c2cnc3c(NCc4ccc(F)cc4)nc(-c4ccncc4)cn23)cc1 [Example 3-10, N-cyclopropyl-4-{8-[(4-fluorobenzyl)amino]-6-(pyrdin-4-yl)imidazo [1,2-a]pyrazin-3-yl} benzamide]	1.9 nM
O=C(NC1CC1)c1ccc(-c2cnc3c(NCCCCO)nc(-c4ccncc4)cn23)cc1 [Example 3-11, N-cyclopropyl-4-{8-[(4-hydroxybutyl)amino]-6-(pyridin-4-yl)imidazo [1,2-a]pyrazin-3-yl} benzamide]	4.1 nM
O=C(NC1CC1)c1ccc(-c2cnc3c(NCc4ccccc4)nc(-c4ccncc4)cn23)cc1 [Example 3-12, 4-[8-(benzylamino)-6-(pyridin-4-yl)imidazo [1,2-a]pyrazin-3-yl]-N-cyclopropylbenzamide]	2.3 nM
CCCCNc1nc(-c2ccncc2)cn2c(-c3ccc(C(=O)NC4CC4)cc3)cnc12 [Example 3-13, 4-[8-(butylamino)-6-(pyridin-4-yl)imidazo [1,2-a]pyrazin-3-yl]-N-cyclopropylbenzamide]	1.7 nM
CC(=O)NCCNc1nc(-c2ccncc2)cn2c(-c3ccc(C(=O)NC4CC4)cc3)cnc12 [Example 3-14, 4-[8-{[2-(acetylamino)ethyl]amino}-6-(pyridin-4-yl)imidazo[1,2-a]pyrazin-3-yl]-N-cyclo-propylbenzamide]	30.7 nM
O=C(NC1CC1)c1ccc(-c2cnc3c(NCc4c(F)cccc4F)nc(-c4ccncc4)cn23)cc1 [Example 3-15, N-cyclopropyl-4-{8-[(2,6-difluorobenzyl)amino]-6-(pyridin-4-yl)imidazo [1,2-a]pyrazin-3-yl} benzamide]	2.7 nM
O=C(NC1CC1)c1ccc(-c2cnc3c(NCCCn4ccnc4)nc(-c4ccncc4)cn23)cc1 [Example 3-16, N-cyclopropyl-4-[8-{[3-(1H-imidazol-1-yl)propyl]amino}-6-(pyridin-4-yl)imidazo[1,2-a]pyrazin-3-yl]benzamide]	12.9 nM
O=C(NC1CC1)c1ccc(-c2cnc3c(NCc4ccccn4)nc(-c4ccncc4)cn23)cc1 [Example 3-17, N-cyclopropyl-4-{6-(pyridin-4-yl)-8-[(pyridin-2-ylmethyl)amino]imidazo [1,2-a]pyrazin-3-yl} benzamide]	4.6 nM
O=C(NC1CC1)c1ccc(-c2cnc3c(NCc4cccnc4)nc(-c4ccncc4)cn23)cc1 [Example 3-18, N-cyclopropyl-4-{6-(pyridin-4-yl)-8-[(pyridin-3-ylmethyl)amino]imidazo [1,2-a]pyrazin-3-yl} benzamide]	2 nM
O=C(NC1CC1)c1ccc(-c2cnc3c(NCc4ccncc4)nc(-c4ccncc4)cn23)cc1 [Example 3-19, N-cyclopropyl-4-{6-(pyridin-4-yl)-8-[(pyridin-4-ylmethyl)amino]imidazo [1,2-a]pyrazin-3-yl} benzamide]	2.1 nM
O=C(NC1CC1)c1ccc(-c2cnc3c(NCc4ccco4)nc(-c4ccncc4)cn23)cc1 [Example 3-20, N-cyclopropyl-4-{8-[(furan-2-ylmethyl)amino]-6-(pyridin-4-yl)imidazo [1,2-a]pyrazin-3-yl} benzamide]	3.5 nM
O=C(NC1CC1)c1ccc(-c2cnc3c(NCC(O)C(F)(F)F)nc(-c4ccncc4)cn23)cc1 (stereo not drawn) [Example 3-21, N-cyclopropyl-4-{6-(pyridin-4-yl)-8-[(3,3,3-tri-fluoro-2-hydroxypropyl)amino]imidazo[1,2-a]pyrazin-3-yl}benzamide]	1.6 nM
O=C(NC1CC1)c1ccc(-c2cnc3c(NCCC(F)(F)F)nc(-c4ccncc4)cn23)cc1 [Example 3-22, N-cyclopropyl-4-{6-(pyridin-4-yl)-8-[(3,3,3-trifluoropropyl)amino]imidazo[1,2-a]pyrazin-3-yl}benzamide]	1.1 nM
CC(O)CNc1nc(-c2ccncc2)cn2c(-c3ccc(C(=O)NC4CC4)cc3)cnc12 (stereo not drawn) [Example 3-23, N-cyclopropyl-4-{8-[(2-hydroxypropyl)amino]-6-(pyrdin-4-yl)imidazo [1,2-a]pyrazin-3-yl} benzamide]	8 nM
COCCCNc1nc(-c2ccncc2)cn2c(-c3ccc(C(=O)NC4CC4)cc3)cnc12 [Example 3-24, N-cyclopropyl-4-{8-[(3-methoxypropyl)amino]-6-(pyridin-4-yl)imidazo [1,2-a]pyrazin-3-yl} benzamide]	5.5 nM
C[S+]([O-])CCNc1nc(-c2ccncc2)cn2c(-c3ccc(C(=O)NC4CC4)cc3)cnc12 (stereo not drawn) [Example 3-25, N-cyclopropyl-4-[8-{[2-(methylsulfinyl)ethyl]amino}-6-(pyridin-4-yl)imidazo[1,2-a]pyrazin-3-yl]benzamide]	19.6 nM
O=C(NC1CC1)c1ccc(-c2cnc3c(NCC(F)F)nc(-c4ccncc4)cn23)cc1 [Example 3-26, N-cyclopropyl-4-{8-[(2,2-difluoroethyl)amino]-6-(pyridin-4-yl)imidazo [1,2-a]pyrazin-3-yl} benzamide]	5.4 nM
Cn1ccc(CNc2nc(-c3ccncc3)cn3c(-c4ccc(C(=O)NC5CC5)cc4)cnc23)n1 [Example 3-27, N-cyclopropyl-4-[8-{[(1-methyl-1H-pyrazol-3-yl)methyl]amino}-6-(pyridin-4-yl)imidazo [1,2-a]pyrazin-3-yl] benzamide]	9.8 nM
Cn1nccc1CNc1nc(-c2ccncc2)cn2c(-c3ccc(C(=O)NC4CC4)cc3)cnc12 [Example 3-28, N-cyclopropyl-4-[8-{[(1-methyl-1H-pyrazol-5-yl)methyl]amino}-6-(pyridin-4-yl)imidazo [1,2-a]pyrazin-3-yl] benzamide]	2.8 nM
Cn1cc(CNc2nc(-c3ccncc3)cn3c(-c4ccc(C(=O)NC5CC5)cc4)cnc23)cn1 [Example 3-29, N-cyclopropyl-4-[8-{[(1-methyl-1H-pyrazol-4-yl)methyl]amino}-6-(pyridin-4-yl)imidazo [1,2-a]pyrazin-3-yl] benzamide]	5.6 nM
CCOC(C)CNc1nc(-c2ccncc2)cn2c(-c3ccc(C(=O)NC4CC4)cc3)cnc12 (stereo not drawn) [Example 3-30, N-cyclopropyl-4-{8-[(2-ethoxypropyl)amino]-6-(pyridin-4-yl)imidazo [1,2-a]pyrazin-3-yl} benzamide]	7.1 nM
